18 molecules from patent EP1192131B1, “METHOD OF INHIBITING AMYLOID PROTEIN AGGREGATION AND IMAGING AMYLOID DEPOSITS USING ISOINDOLINE DERIVATIVES” (Warner-Lambert Company LLC, priority 1999, dated 2000) can be followed below.

Assay [1] addresses T1, Aβ (1-42) (Homo sapiens, UniProt P05067).
T1 construct: Required Aβ (1-42)(California Peptide) was dried from its hexafluoroisopropanol (HFIP) stock solution; purchased California Peptide
Kind of assay: BATYM assay, Aβ (1-42) aggregation, Thioflavin T fluorescence. The assay is classed as biochemical. Here is the method:
Required Aβ (1-42)(California Peptide) was dried from its hexafluoroisopropanol (HFIP) stock solution. The Aβ (1-42) was dissolved in dimethylsulfoxide (DMSO) and then mixed with phosphate buffered saline (PBS) (pH 7.4). The mixed Aβ (1-42) solution was filtered through a […] Omnipore membrane syringe filter (Millipore, Bedford, MA). The compound to be tested in DMSO (50 times concentrate) was put into each well (0.5 µL/well) of a 96-well plate. The Aβ (1-42) solution was added into each well (24.5 µL/well). The plate was centrifuged at 1,000 g for 5 minutes and incubated at 37°C for 1 day (Aβ 1-42; final concentration 100 µM).
After incubation Thioflavin T (ThT) (30 µM) solution in glycine-NaOH buffer (pH 8.5, 50 mM) was added into each well (250 µL/well), fluorescence was measured (ex. 440/20 nm; em 485/20 nm) using a fluorescence plate reader. The inhibitory activity was calculated as the reduction of fluorescence with the following formula: Inhibition (%) = {(F(Aβ)-F(Aβ+compound)}/{F(Aβ)-F (solvent+compound)} × 100 [formula]
The IC50s (concentration of test compound required to cause a 50% inhibition of aggregation) were calculated by a curve fitting program using the following equation. The data were obtained from two different experiments in triplicate. Inhibition (x) = 100-100/{1 + (x/IC50)^n }, [formula] x = concentration of tested compound (M), IC50 = (M), n = Hill coefficient.

In assay [2] the target is Aβ(1-40) (Homo sapiens, UniProt P05067). Kind of assay: BASSR (Beta-Amyloid Self-Seeding Radioassay), inhibition of self-seeded amyloid fibril growth. Also on record: Soluble Aβ(1-40) peptide (Bachem, Torrance, CA); purchased Bachem, Torrance, CA. As to conditions: 30 µM soluble Aβ (1-40) + 125I-labeled Aβ(1-40), 37°C, 3 to 5 hours, several values in a cell = repeat values, letter in parentheses = lot of compound (no letter = Lot P), (ppt), (v-shape) flags. The assay is classed as biochemical. Here is the method: BASSR (Beta-Amyloid Self-Seeding Radioassay)
An assay for inhibitors of self-seeded amyloid fibril growth
Assay Buffer - 50 mM sodium phosphate, pH 7.5, 100 mM NaCl, 0.02% NaN3, 1 M urea (filter and store at 4°C)
Soluble Aβ(1-40) peptide (Bachem, Torrance, CA) - 2.2 mg/mL in deionized H2O (stored in aliquots at -20°C, keep on ice when thawed) will self-seed after 1 week storage. Typically, the solution should be stored until no lag phase is seen in the assay.
^125I-labeled Aβ (1-40) - 150K-350K cpm/µL in 100% acetonitrile -0.1% trifluoroacetic acid (TFA) -1% β-mercaptoethanol (aliquots stored at -20°C) ^125I-labeled Aβ(1-40) can be made in accordance with the procedure set forth by H. LeVine, III in Neurobiol. Aging, 16:755 (1995), which is hereby incorporated by reference, or this reagent may be purchased from Amersham, Arlington Heights, Illinois.
Final assay conditions: 30 µM soluble Aβ (1-40) in deionized water in assay buffer + 20-50K cpm ^125I-labeled Aβ(1-40) per assay. Compound to be tested is dissolved in dimethylsulfoxide (DMSO), typically 5-50 mM stock, such that the final concentration of DMSO is <1% v/v in the assay.
Assay: Reaction mixture for 50 assays (on ice) is comprised of 0.1-0.2 µL of ^125I-labeled A^125I-labeled Aβ(1-40) + 1 µL of soluble Aβ (1-40) + 13.5 µL assay buffer per assay. The following are the amounts of the components of the reaction mixture sufficient for 50 assay wells. 5-10 µL ^125I-labeled Aβ (1-40) dried down 675 µL assay buffer 50 µL soluble Aβ (1-40)
• 1) Prepare reaction mixture above by mixing components and storing on ice. • 2) Pipet 14.5 µL of reaction mixture into each of 50 wells on a polypropylene U-bottom 96-well microtiter plate on ice (Costar 3794). • 3) Add 1.7 µL, of diluted compound to be tested to each well in a column of eight, including solvent control. Serial 3-fold dilutions from 1 mM (100 µM final) in assay buffer -urea = 7 dilutions + zero. Each 96-well plate can therefore accommodate 11 samples + 1 Congo Red control (0.039-5 µM final in 2-fold steps). • 4) Seal the plate with aluminum film (Beckman 538619) and incubate for 10 minutes on ice. • 5) Raise the temperature to 37°C and incubate for 3 to 5 hours (depending on the lot of the peptide). • 6) Remove the aluminum film and add 200 µL/well of ice cold assay buffer with urea, collecting the radiolabeled fibrils by vacuum filtration through 0.2 µm pore size GVWP filters in 96-well plates (Millipore MAGV N22, Bedford, MA). Determine the radioactivity of the filters using standard methods well-known to those skilled in the art.

Where [3] appears, read: read-out: BATYM IC50, Aβ 1-42 final concentration 100 µM, 37°C, 1 day, letter in parentheses = lot of compound (no letter = Lot P).
Setting [4] is: Aβ 1-42 final concentration 100 µM, 37°C, 1 day, letter in parentheses = lot of compound (no letter = Lot P), read-out: BATYM IC50.
Setting [5] is: read-out: BASSR IC50 (converted).

Several values for one entry are separate records, joined by “and”; a condition that tells them apart may be missing. Equal entries are not always repeated. Where two headings read alike, the source gives them in different places. Some results are limits rather than exact numbers.

T1 sequence (P05067 672-713): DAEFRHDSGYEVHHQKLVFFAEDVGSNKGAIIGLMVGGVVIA
Chain of Aβ(1-40) (P05067 672-711): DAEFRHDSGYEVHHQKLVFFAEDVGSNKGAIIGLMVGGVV

In the case of `O=C(O)c1ccccc1Nc1ccc2c(c1)CN(c1ccc(Cl)c(C(F)(F)F)c1)C2` [Example 10, 2-[2-(4-Chloro-3-trifluoromethylphenyl)-2,3-dihydro-1H-isoindol-5-ylamino]benzoic acid], the IC50 in assay [1] (setting [3]) was 34.6 µM; in assay [2] (read-out: BASSR IC50), 100 µM and 58 µM and 55 µM and 70 µM.

With `O=C(O)c1cc([N+](=O)[O-])ccc1Nc1ccc2c(c1)CN(c1ccc(Cl)c(C(F)(F)F)c1)C2` [Example 19, 2-[2-(4-Chloro-3-trifluoromethyl-phenyl)-2,3-dihydro-1H-isoindol-5-ylamino]-5-nitro-benzoic acid], the IC50 is 12.8 µM in assay [1] (setting [3]); 1.1 µM and 1 µM in assay [2] (read-out: BASSR IC50).

In the case of `O=C(O)c1cc([N+](=O)[O-])ccc1Nc1ccc2c(c1)CN(c1ccc(Cl)cc1)C2` [Example 15, 2-[2-(4-Chloro-phenyl)-2,3-dihydro-1H-isoindol-5-ylamino]-5-nitro-benzoic acid], the figures for the IC50 in assay [1] (setting [4]) and in assay [2] (setting [5]) were 32.5 µM and more than 100 µM, respectively.

Turning to `COc1cccc(N2Cc3ccc(Nc4ccc([N+](=O)[O-])cc4C(=O)O)cc3C2)c1` [Example 21, 2-[2-(3-Methoxy-phenyl)-2,3-dihydro-1H-isoindol-5-ylamino]-5-nitro-benzoic acid], the IC50 is 9.64 µM in assay [1] (setting [4]); 7 µM and 2.2 µM and 2 µM in assay [2] (setting [5]).

Consider `COc1cccc(N2Cc3ccc(Nc4ccccc4C(=O)O)cc3C2)c1` [Example 26, 2-[2-(3-Methoxy-phenyl)-2,3-dihydro-1H-isoindol-5-ylamino]-benzoic acid], for which the IC50 was 64.9 µM in assay [1] (setting [4]) and more than 100 µM in assay [2] (setting [5]).

Take `Nc1ccc(Nc2ccc3c(c2)CN(c2ccc(Cl)c(Cl)c2)C3)c(C(=O)O)c1` [Example 17, 5-Amino-2-[2-(3,4-dichloro-phenyl)-2,3-dihydro-1H-isoindol-5-ylamino]-benzoic acid]: the IC50 in assay [1] (setting [4]) was 20 µM; in assay [2] (setting [5]), 20 µM and 80 µM.

In the case of “2-[2-(3-chlorophenyl)-2,3-dihydro-1H-isoindol-5-ylamino]benzoic acid [Example 7]”, the IC50 in assay [1] (setting [4]) is 37.3 µM; in assay [2] (setting [5]), 90 µM and 80 µM and > 100 µM.

With `O=C(O)c1ccccc1Nc1ccc2c(c1)CN(c1ccc(Cl)c(Cl)c1)C2` [Example 4, 2-[2-(3,4-Dichlorophenyl)-2,3-dihydro-1H-isoindol-5-ylamino]benzoic acid], the IC50 is 26.1 µM and 22.2 µM in assay [1] (setting [4]); 12 µM and 11 µM (2×) and 15 µM (3×) in assay [2] (setting [5]).

For the molecule `O=C(O)c1cc(F)ccc1Nc1ccc2c(c1)CN(c1ccc(Cl)c(Cl)c1)C2` [Example 23, 2-[2-(3,4-Dichloro-phenyl)-2,3-dihydro-1H-isoindol-5-ylamino]-5-fluoro-benzoic acid], the IC50 was 34.1 µM in assay [1] (setting [4]); > 100 µM and 50 µM and 70 µM in assay [2] (setting [5]).

In the case of `O=C(O)c1cc([N+](=O)[O-])ccc1Nc1ccc2c(c1)CN(c1ccccc1)C2` [Example 18, 5-Nitro-2-(2-phenyl-2,3-dihydro-1H-isoindol-5-ylamino)-benzoic acid], the IC50 in assay [1] (setting [4]) is 16.6 µM; in assay [2] (setting [5]) it was 7 µM and 4 µM and 5 µM.

On to “2-[2-(4-chlorophenyl)-2,3-dihydro-1H-isoindol-5-ylamino]benzoic acid [Example 8]”, for which the IC50 in assay [1] (setting [4]) was 33.4 µM; in assay [2] (setting [5]) it was more than 100 µM.

As to “2-[2-(3,4-Dimethylphenyl)-2,3-dihydro-1H-isoindol-5-ylamino]benzoic acid [Example 9]”, the IC50 in assay [1] (setting [4]) is 32.9 µM; in assay [2] (setting [5]), more than 100 µM.

In the case of `COc1cc(Nc2ccc3c(c2)CN(c2ccc(Cl)c(Cl)c2)C3)c(C(=O)O)cc1[N+](=O)[O-]` [Example 6, 2-[2-(3,4-Dichlorophenyl)-2,3-dihydro-1H-isoindol-5-ylamino]-4-methoxy-5-nitro-benzoic acid], the IC50 was 13.5 µM and 14.6 µM in assay [1] (setting [4]); 7 µM (2×) and 12 µM and 4 µM and 5 µM in assay [2] (setting [5]).

For `COc1cc(N2Cc3ccc(Nc4ccccc4C#N)cc3C2)cc(OC)c1OC` [Example 25, 2-[2-(3,4,5-Trimethoxy-phenyl)-2,3-dihydro-1H-isoindol-5-ylamino]-benzonitrile], the IC50 in assay [1] (setting [4]) and in assay [2] (setting [5]) was more than 100 µM in each case.

Regarding `O=C(O)c1ccccc1Nc1ccc2c(c1)CN(c1cccc(F)c1)C2` [Example 22, 2-[2-(3-Fluoro-phenyl)-2,3-dihydro-1H-isoindol-5-ylamino]-benzoic acid], the IC50 in assay [1] (setting [4]) is 84 µM; in assay [2] (setting [5]), 10 µM and 3 µM (2×) and 6.5 µM and 8 µM.

For the molecule `Cc1ccc(N2Cc3ccc(Nc4ccc([N+](=O)[O-])cc4C(=O)O)cc3C2)cc1C` [Example 12, 2-[2-(3,4-Dimethyl-phenyl)-2,3-dihydro-1H-isoindol-5-ylamino]-5-nitro-benzoic acid], the IC50 in assay [1] (setting [4]) is 11.7 µM; in assay [2] (setting [5]) it was more than 100 µM.

On to `Clc1ccc(N2Cc3ccc(Nc4ccccc4-c4nnn[nH]4)cc3C2)cc1Cl` [Example 16, [2-(3,4-Dichloro-phenyl)-2,3-dihydro-1H-isoindol-5-yl]-[2-(1H-tetrazol-5-yl)-phenyl]-amine], for which the IC50 in assay [1] (setting [4]) was 29.5 µM; in assay [2] (setting [5]), more than 100 µM.

As for `O=C(O)c1cc([N+](=O)[O-])ccc1Nc1ccc2c(c1)CN(c1cccc(F)c1)C2` [Example 20, 2-[2-(3-Fluoro-phenyl)-2,3-dihydro-1H-isoindol-5-ylamino]-5-nitro-benzoic acid], the values for the IC50 in assay [1] (setting [4]) and in assay [2] (setting [5]) were 11.5 µM and more than 100 µM, respectively.
